We go through 3 compounds from patent US20250059196A1 (SHANGHAI HANSOH BIOMEDICAL CO., LTD., priority 2021, published 2025).

A word on the IC50: it is the point on the concentration scale where inhibition reaches its midpoint. A word on the AUC(0-inf): it is total exposure, with the tail of the curve extrapolated. A word on the half-life: it is how long it takes for the measured level to halve. Higher therefore signals slow loss. As a reminder, the AUC(0-t) is exposure summed from dosing to a finite time, without extrapolation to infinity. One may read the Cmax as the maximum level reached in the sampled fluid or tissue. The MRT is the average time that molecules of a dose stay in the body. For orientation: Tmax means the time from dosing to the highest level.

Data set [1] addresses Recombinant human MALT1/MLT protein (Homo sapiens (Human), UniProt Q9UDY8). As to the kind of experiment: Inhibitory effect on MALT1 enzyme activity (Ac-LRSR-AMC substrate, fluorescence 460 nm). The class given is biochemical. As to conditions: 10 nM FL MALT1, Ac-LRSR-AMC substrate, 50 min pre-incubation, 4 h reaction. In a few lines:
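Full-length MALT1 (10 nM) pre-incubated 50 min at room temperature with compound (11-point 3-fold series from 1000 nM), then 4 h reaction with […] Ac-LRSR-AMC in Tris pH 7.5, 0.6 M citrate, DTT, EDTA, BSA, 1.5% DMSO. Fluorescence at 460 nm; IC50 from four-parameter fit.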

The target of data set [2] is MALT1 protease activity in TMD8 cells (substrate BCL-10) (Homo sapiens (Human), UniProt Q9UDY8). The data set can be described thus: Intracellular MALT1 protease activity detection (BCL-10 ELISA in TMD8 cells). The class given is cell-based. As to conditions: undigested BCL-10 by ELISA, 30 min compound then 2 h stimulation cocktail, read-out: Bcl10 TMD8 IC50. In a few lines:
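TMD8 cells treated 30 min with compound (10000-1.5 nM, 9 points, 3-fold), then stimulated 2 h with cell stimulation cocktail. Undigested BCL-10 in lysates quantified by sandwich ELISA with TMB colour read-out; IC50 from four-parameter variable-slope fit.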

Data set [3] in a line: Pharmacokinetics of oral administration in Balb/C mice. The format is in vivo. The conditions noted are these: male, mouse, po, 30 mg/kg, P.O., plasma; for AUC(0-t): read-out: AUC 0-t; for Cmax: read-out: Cmax; for MRT: read-out: MRT; for Tmax: read-out: Tmax. In a few lines: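 Male Balb/C mice (n=3), fasted overnight, dosed orally at 30 mg/kg. Orbital plasma sampled at 0, 0.5, 1, 2, 4, 6, 8 and 24 h, acetonitrile-precipitated, and analysed by LC/MS/MS (C18, formic acid/acetonitrile); PK parameters by non-compartmental-style software analysis.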

Chain of MALT1 protease activity in TMD8 cells (substrate BCL-10) (Q9UDY8 whole entry): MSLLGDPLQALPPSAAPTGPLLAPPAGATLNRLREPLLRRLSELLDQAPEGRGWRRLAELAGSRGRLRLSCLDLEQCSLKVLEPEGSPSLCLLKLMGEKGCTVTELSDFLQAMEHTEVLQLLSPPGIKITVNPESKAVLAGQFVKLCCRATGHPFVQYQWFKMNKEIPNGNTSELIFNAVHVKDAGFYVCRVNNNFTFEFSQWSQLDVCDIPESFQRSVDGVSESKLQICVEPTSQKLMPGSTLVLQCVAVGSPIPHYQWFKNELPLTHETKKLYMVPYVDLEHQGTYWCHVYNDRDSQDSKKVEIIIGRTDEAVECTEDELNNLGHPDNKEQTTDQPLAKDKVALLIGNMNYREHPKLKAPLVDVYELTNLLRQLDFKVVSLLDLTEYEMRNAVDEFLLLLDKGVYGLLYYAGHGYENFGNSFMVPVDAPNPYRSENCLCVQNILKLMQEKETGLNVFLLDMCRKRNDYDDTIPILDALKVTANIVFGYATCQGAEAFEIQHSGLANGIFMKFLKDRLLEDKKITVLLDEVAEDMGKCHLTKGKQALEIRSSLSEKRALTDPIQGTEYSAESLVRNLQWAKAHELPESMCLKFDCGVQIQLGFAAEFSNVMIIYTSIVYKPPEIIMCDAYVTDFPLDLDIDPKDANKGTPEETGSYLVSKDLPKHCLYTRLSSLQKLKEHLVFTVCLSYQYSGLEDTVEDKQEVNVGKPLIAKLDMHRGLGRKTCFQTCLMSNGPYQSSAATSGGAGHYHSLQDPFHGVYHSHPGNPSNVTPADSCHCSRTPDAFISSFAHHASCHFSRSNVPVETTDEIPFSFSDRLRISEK
Chain of Recombinant human MALT1/MLT protein (Q9UDY8 whole entry): as above

For the compound `O=C(Nc1cnc(-n2nccn2)c(C(F)(F)F)c1)c1cnn(-c2ccc3c4c(cccc24)C(=O)N3)c1C(F)(F)F` [Example 18, N-(6-(2H-1,2,3-triazol-2-yl)-5-trifluoromethylpyridin-3-yl)-1-(2-oxo-1,2-dihydrobenzo[cd]indol-6-yl)-5-trifluoromethyl-1H-pyrazole-4-carboxamide], the IC50 in data set [1] is 24 nM. For the same compound, the IC50 in data set [2] was determined as 61 nM. In data set [3], the AUC(0-inf) was 222 µg·h/mL, the half-life is 1.9 h, the AUC(0-t) turned out to be 222 µg·h/mL and the Cmax turned out to be 22900 ng/mL. In data set [3], the MRT is 5.4 h and the Tmax worked out at 2 h.

In the case of `O=C(Nc1ccc(-n2nccn2)c(Cl)c1)c1cnn(-c2ccc3c4c(cccc24)C(=O)N3)c1C(F)(F)F` [Example 53, N-(3-chloro-4-(2H-1,2,3-triazol-2-yl)phenyl)-1-(2-oxo-1,2-dihydrobenzo[cd]indol-6-yl)-5-(trifluoromethyl)-1H-pyrazole-4-carboxamide], in data set [1], the IC50 was 25 nM. The IC50 in data set [2] stood at 56 nM. In data set [3], the AUC(0-t) was determined as 256 µg·h/mL, the Cmax was 14100 ng/mL and the Tmax was 8 h.

Regarding `O=C(Nc1ccnc(C(F)(F)F)c1)c1cnn(-c2ccc3c4c(cccc24)C(=O)N3)c1C1CC1` [Example 55, 5-cyclopropyl-1-(2-oxo-1,2-dihydrobenzo[cd]indol-6-yl)-N-(2-(trifluoromethyl)pyridin-4-yl)-1H-pyrazole-4-carboxamide], the IC50 in data set [1] is 171 nM. Besides, the IC50 in data set [2] was 50 nM. In addition, in data set [3], the AUC(0-inf) stood at 472 µg·h/mL, the half-life is 8.6 h, the AUC(0-t) came to 401 µg·h/mL and the Cmax is 28300 ng/mL. Further, in data set [3], the MRT amounted to 12.2 h and the Tmax turned out to be 4 h.
